Laboratory results taken from US9951052B2, “Inhibitors of the renal outer medullary potassium channel” (Merck Sharp & Dohme Corp., priority 2013, dated 2018).

Target: T1, hROMK (hKir1.1) (Homo sapiens, UniProt P48048)
T1 construct: expressed in transfected cells
T1 sequence (P48048 1-391): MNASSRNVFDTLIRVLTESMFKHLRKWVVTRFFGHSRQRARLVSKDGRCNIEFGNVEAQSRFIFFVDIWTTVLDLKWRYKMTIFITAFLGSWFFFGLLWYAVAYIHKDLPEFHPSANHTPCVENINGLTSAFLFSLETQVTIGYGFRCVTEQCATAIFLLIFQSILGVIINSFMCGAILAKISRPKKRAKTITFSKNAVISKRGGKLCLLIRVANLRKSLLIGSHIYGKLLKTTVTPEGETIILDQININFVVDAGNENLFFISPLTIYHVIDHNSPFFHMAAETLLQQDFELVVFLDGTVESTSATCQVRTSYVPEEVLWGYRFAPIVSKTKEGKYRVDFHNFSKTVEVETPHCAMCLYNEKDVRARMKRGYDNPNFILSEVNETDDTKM
Test: Thallium Flux Assay (ROMK channel functional thallium flux, FLIPR-Tetra)
Format: cell-based
Details: HEK293 cells stably expressing hROMK (hKir1.1); 30 min incubation with compound; HCl salt run where final product was an HCl salt
Method in brief: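 HEK293 cells stably expressing hROMK were FluxOR dye-loaded 90 min, then given compound 30 min at room temperature in probenecid assay buffer with 0.3 mM ouabain. Final 3 mM Tl+/0.3 mM K+ stimulus; fluorescence ([…]) recorded ~10 min. Normalized to 3 μM reference inhibitor for IC50.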

Structure (SMILES)	IC50 [nM]
Cc1nsc(NC(=O)C2(O)CCN(C[C@H](O)c3ccc4c(c3C)COC4=O)CC2)n1 [Example 40, (R)-4-hydroxy-1-(2-hydroxy-2-(4-methyl-1-oxo-1,3-dihydroisobenzofuran-5-yl)ethyl)-N-(3-methyl-1,2,4-thiadiazol-5-yl)piperidine-4-carboxamide]	420
COc1nsc(NC(=O)C2C3CN(C[C@H](O)c4ccc5c(c4C)COC5=O)CC32)n1 (stereo partly drawn) [Example 57, 3-((R)-2-hydroxy-2-(4-methyl-1-oxo-1,3-dihydroisobenzofuran-5-yl)ethyl)-N-(3-methoxy-1,2,4-thiadiazol-5-yl)-3-azabicyclo[3.1.0]hexane-6=carboxamide]	310
N#Cc1cc(NC(=O)C2CCN(CCc3ccc4c(c3)COC4=O)CC2)ccc1Cl [Example 16, N-(4-chloro-3-cyanophenyl)-1-(2-(1-oxo-1,3-dihydroisobenzofuran-5-yl)ethyl)piperidine-4-carboxamide]	260
N#Cc1cc(NC(=O)C2CCN(CCc3ccc4c(c3)COC4=O)CC2)ccc1F [Example 17, N-(3-cyano-4-fluorophenyl)-1-(2-(1-oxo-1,3-dihydroisobenzofuran-5-yl)ethyl)piperidine-4-carboxamide]	410

Stronger by IC50, values ahead:

IC50 [nM]	Structure (SMILES)
100	Cc1c([C@@H](O)CN2CCC(C(=O)Nc3cnsc3)CC2)ccc2c1COC2=O [Example 28, (R)-1-(2-hydroxy-2-(4-methyl-1-oxo-1,3-dihydroisobenzofuran-5-yl)ethyl)-N-(isothiazol-4-yl)piperidine-4-carboxamide]
140	Cc1c(CCN2CCC(C(=O)Nc3ccc(C#N)cc3)CC2)ccc2c1COC2=O [Example 3, N-(4-cyanophenyl)-1-(2-(4-methyl-1-oxo-1,3-dihydroisobenzofuran-5-yl)ethyl)piperidine-4-carboxamide]
40	Cc1c([C@@H](O)CN2CCC(C(=O)Nc3ccns3)CC2)ccc2c1COC2=O [Example 22, 1-[(2R)-2-hydroxy-2-(4-methyl-1-oxo-1,3-dihydro-2-benzofuran-5-yl)ethyl]-N-(isothiazol-5-yl)piperidine-4-carboxamide]
